Measured values: PMC8632718, “Novel Assay Platform to Evaluate Intracellular Killing of Mycobacterium tuberculosis: In Vitro and In Vivo Validation” (Frontiers in Immunology, 2021)
In brackets after ≈: the same amount, converted by molar mass. Like-named read-outs stand apart in the source and are kept apart here. Ends that are not written are not given here.

Key:
[1] = system: CALU-1 monolayer / EBC-1 cells; assay type: in vitro ADME, human; details: Transwell, 0.4 µm polycarbonate, Cf-peptide apical 10 and 20 µM, 45 min, apical to basolateral; EBC-1 fluorescence read-out
Experimental: EBC-1 lung squamous carcinoma and CALU-1 human lung epidermoid carcinoma were seeded on 24-well plates with Transwell inserts (TW) [Nunc, Sigma polycarbonate microporous membrane, 0.4 µm pore size (growth area 0.412 cm^2)]. Before use, TW inserts were incubated with ICM. On day 1, 300 μl of CALU-1 suspension in complete DMEM medium (8.0 × 10^5 cells) was pipetted onto the surface of the TW apical chamber and 500 μl complete DMEM medium was added to the basolateral side. In order to avoid nonattached cells, after incubation at 37°C for 5–6 h, the apical medium was removed and replaced with fresh complete DMEM medium. […] On day 5, the medium was changed, then Cf-peptide was added to the CALU-1-containing apical side at 10 and 20 µM concentrations, and the system was incubated for 45 min or 3 h (37°C, 5% CO2). The TW chamber was removed after incubation. EBC-1 cells were studied using flow cytometry (BD LSR II).
EBC-1 cells were treated without the presence of the TW inserts as controls (on day 4 prior to treatment, EBC-1 cells (10^5 cells/well in complete DMEM). […]
Figure 7 The penetration ability of Cf-peptides was determined on Transwell bronchial interface, and the penetration rates were quantified by flow cytometry. […] The confluence of CALU-1 monolayer was monitored with CellTracker Green, and after development of stable green fluorescence, cells were imaged in situ. […]

EBC-1 cells = assay type: cell-based, human; details: 10 µM, 3 hrs, fixed, 30 profiles
Experimental: In addition to the internalization experiments, the surface morphology of INH-peptide-treated and fixed EBC-1 cells was also studied with atomic force microscopy (AFM) ( Supplementary Information 1.3 ). High-resolution imaging of the cell surfaces was performed with a Flex-Axiom AFM system (Nanosurf, Liestal, Switzerland).The representative images and surface roughness of the native and treated cells are shown in Supplementary Figure S2 .
1.3 Membrane integrity evaluation by atomic force microscopy (AFM) […]
High resolution imaging of the surfaces were performed with a Flex-Axiom AFM system (Nanosurf, Liestal, Switzerland) operating in dynamic mode utilizing soft-tapping cantilevers (Tap150-G, BudgetSensors) with nominal force constant of 5 N/m. The recorded images were evaluated with the Gwyddion software. […]
Two cut-off frequencies were chosen with real-space wavelengths of 1 μm and 200 nm. […] Figure 2D,E,F. Scale dependent surface roughness of the cells was determined according to Antonio et al. Mean Rq values are somewhat higher in the peptide and conjugate treated cells, but […]
Supplementary Figure 2. […] The apex area of the cells was selected for imaging with a scan area of 5 μm × 5 μm (512 × 512 pixel resolution), where the cellular curvature has the smallest distortion effect on the recorded height profiles. […]
1.4. […] To quantify […]

[2] = Analytical RP-HPLC retention time (correlates with overall hydrophobicity); assay type: physicochemical; set-up: Rt (retention time): unit not given here; details: chromatographic measure of hydrophobicity; Waters Acquity UPLC BEH C18 (1.7 µm, 150 × 2.1 mm), flow rate 0.3 ml/min, gradient 2% B 1 min, 2%–100% B 16 min; single peak or first of two 5(6)-Cf isomer peaks
Experimental: Purified peptides were analyzed by LC-MS using a Thermo Scientific Q Exactive Focus Hybrid Quadrupole-Orbitrap Mass Spectrometer. For the separation, a Waters Acquity UPLC BEH C18 (1.7 µm, 150 × 2.1 mm) column was used with a flow rate of 0.3 ml/min.
For INH conjugation, representative cell-penetrating (CPP) and antimicrobial peptides (AMP) were chosen. These cationic, amphiphilic peptides are favored in the transportation of various cargos due to their high internalization rate. The used peptide series contains well-known CPPs such as penetratin, transportan, and Tat, frequently studied AMPs such as magainin and buforin, and designed analogs such as Dhvar4, Crot(1-9,38-42), and CM15. Also, a receptor-binding tuftsin analog (OT20), which was reported as a macrophage-targeting peptide, was also applied. […] Mass spectra and RP-HPLC chromatograms are available at https://figshare.com/s/48a023a25068f7658adf, DOI: 10.6084/m9.figshare.16644901. […] To study the internalization rate and intracellular localization, fluorescently labeled analogs were also synthesized. Note that the retention time of Cf-peptide are somewhat higher than unlabeled analogs, and in some cases, two peaks were detected due to the isomeric distribution of 5(6)-Cf molecule.

[3] = system: Mtb H37Rv-infected MonoMac-6 human monocytes; experiment: Intracellular killing of Mycobacterium tuberculosis; assay type: cell-based
EBC-1 spheroids = experiment: Penetration into EBC-1 3D spheroids (confocal line scan); assay type: cell-based, human; details: 10 µM, 3 h, confocal z-stack to 55 µm, line scan n = 16
Experimental: In this study, we have employed a modified method based on ([55]). Briefly, micromolds for casting 3D Petri dishes (MicroTissues, Sigma, 5 × 7 array) were filled with molten agarose (2% (w/v) in PBS). The gelled agarose dishes were equilibrated with serum-free DMEM (2 ml/2 h, 37°C). Cells were seeded after incubation (1.8 × 10^4 cell/µL in DMEM CM). Prior to seeding process, nuclei were stained with Hoechst 33342 solution (0.2 µM) for 30 min ( Figure 2 ). Based on our previous work ([55]), the nuclear stain could not successfully penetrate into deeper layers of the spheroids (mostly localized at the spheroid surface), and towards the center of the spheroids the Hoechst 33342 signal was gradually decreasing. Stained cells were incubated in 2 ml DMEM CM for 48 h while cell-to-cell adhesion drives the aggregation and formation of spheroids. To monitor the condition of the spheroids, bright-field images were captured (Olympus CX41). After 48 h of incubation, spheroids were washed two times with fresh ICM DMEM and were treated with the Cf-Dhvar4 peptide (10 µM/2 ml ICM DMEM for 3 h). […] Line scan analysis was performed by NIH ImageJ software, two spheroids were analyzed (eight scans per spheroid, n = 16 in total). […]
Next, we assessed the penetration ability of Cf-Dhvar4 peptide on spheroids formed from EBC-1 cells. […]

MonoMac-6 cells = assay type: cell-based, human; details: 10 µM Cf-peptide, 2 h, LysoTracker, ImageJ JACoP on merged images
Experimental: Cellular uptake and localization were visualized by confocal laser scanning microscopy. MonoMac-6 cells were seeded 1 day prior to treatment into coverslips (thickness 1, Assistent, Karl Hecht GmbH, Sondheim vor der Rhön, Germany) containing a 24-well plate (Sarstedt, Nümbrecht, Germany) for microscopy studies at a density of 7.5 × 10^4 cells/well, in 1 ml complete DMEM medium. The following day, cells were treated with Cf-peptide at a concentration of 10 µM (diluted in serum-free DMEM medium) for 2 h. Lysosomes were stained by LysoTracker Deep Red (Invitrogen, Waltham, MA, USA) for 30 min, and nuclei were stained by Hoechst 33342 solution (Thermo Scientific, USA). After each step, cells were washed three times with serum-free medium, then cells were fixed by 4% paraformaldehyde for 15 min and mounted to microscopy slides with Mowiol 4-88 (Sigma, Budapest, Hungary). Imaging was performed by a Zeiss LSM-710 system (Carl Zeiss microscopy GmbH, Oberkochen, Germany) with a ×40/1.4 Plan-Apochromat oil immersion objective using lasers with the parameters: Cf peptides λex = 488 nm, λem = 541 nm, nuclei λex = 405 nm, λem = 467 nm (Hoechst 33342), lysosomes λex = 633 nm, λem = 720 nm (LysoTrackerTM Deep Red) or λex = 577 nm, λem = 590 nm (LysoTrackerTM Red DND-99) were used. Zeiss ZEN lite software (Carl Zeiss Microscopy GmbH, Jena, Germany) was used for image processing.
Parallel with flow cytometry measurements, confocal laser scanning microscopy images were also captured in order to assess qualitative information on intracellular localization. LysoTrackerTM Deep Red was used for lysosome and Hoechst 33342 for nuclear staining to distinguish subcellular localization of the Cf-peptide. […] Colocalization of Cf-peptide and LysoTracker may be subjectively identified by the cooccurrence, the simple spatial overlap which combined the contribution of both signals (green and red) when the images of each signal are superimposed (merged, see Supplementary Figure S3 ).
microscopy at the 10 µM Cf-peptide concentration (based on flow cytometry profile), and MonoMac6 cells were incubated for 2 hrs.
the visible differences among localization profiles of the Cf-peptides, we applied greyscale analysis of
the images and the evaluation was carried out on a representative peptide set.
were studied and the treatment, the staining and fixation process were carefully optimized to assess
Laser intensity values were identical in case of all Cf-peptides. ZEN 3.0 blue lite software
was used for image processing and grey scale values were extracted using NIH ImageJ software’s Plot

[4] = system: Mycobacterium tuberculosis H37Rv; experiment: Slow progressing murine TB model (i.p. infection), CFU in organs; assay type: in vivo, BALB/c female mice; details: BALB/c mice, INH 20 mg/kg bw per os, twice a week for 5 weeks, 1 week after 10th treatment
Mtb H37Rv = experiment: In vitro antitubercular effect, broth dilution MIC; assay type: cell-based; details: Mycobacterium tuberculosis, 672 h, extracellular Mtb H37Rv, Sula semisynthetic medium pH 6.5, 37°C, 28 days, repeated at least two times

Compound: KRLFKKLLFSLRKY-NH2 [Dhvar4, reference compound]
- penetration through CALU-1 monolayer and internalization into EBC-1 cells [1]: higher internalization rates
- membrane integrity (AFM surface roughness Rq) (EBC-1 cells): membrane integrity maintained
- Rt (retention time) [2]: 6.9
- intracellular killing efficacy (CFU) [3]: not effective

Compound: Cf-RAGLQFPVGRVHRLLRK [Cf-Dhvar4, 5(6)-carboxyfluorescein-labeled Dhvar4]
- penetration ability on EBC-1 spheroids (EBC-1 spheroids): fair penetration ability
- Pearson's coefficient of colocalization with lysosomal staining (MonoMac-6 cells): 0.249

Compound: NNC(=O)c1ccncc1 [INH, isoniazid]
- Mtb CFU in spleen ([4]; INH-Dhvar4 30 mg/kg bw s.c.): moderate decrease
- Mtb CFU in lung [4]: Clearance of Mtb from the lung
- MIC (Mtb H37Rv): 0.1 to 0.5 µM (≈ 0.0137 to 0.0686 µg/mL)
- intracellular killing efficacy (CFU) ([3]; 5, 10, 50 µM, treated two times for 3 + 3 days, SDS lysis, CFU on Löwenstein-Jensen after 4 weeks): not effective
